Assays:
Format in all cases: cell-based
FR-α = test: Induction of endogenous FR-α in ER+/FRα-negative cells; conditions: ER+/FRα-negative cells including BG-1; results not shown
Excerpt: It appears that ER will only modulate the endogenous FR-α gene in cells in which the gene is transcriptionally active.

FR-α/SV40 (GC)6 promoter = test: FR-α/SV40 (GC)6 chimeric promoter-luciferase in HeLa cells with ER; conditions: in the presence of ER
Experimental: FIG. 6C is a graph showing HeLa cells (10^6) which were transfected with FR-α promoter-luciferase (FR-α-Luc) (400 ng) [Seq. ID No. 6], FR-1-Luc in which the G/C-rich region (−47 nt to −18 nt) [Seq. ID No. 7] of the P4 promoter was replaced by the G/C-rich region in the SV40 early promoter (FR-α/SV40 (GC)6) (400 ng), or with FR-α-Luc[Seq. ID No. 6] in which the initiator region (−28 nt to +33 nt) [Seq. ID No. 8] was replaced by the TATA box-containing initiator region of the SV40 early promoter (FR-α/SV40-lnr) (400 ng). ER expression plasmid (25 ng) or the plasmid vector (25 ng) was co-transfected as indicated. The transfected cells were grown in the presence of E2 (1 nM) and either in the absence or in the presence of ICI 182, 780 for 48 h before harvesting them for luciferase assays.
DNA Constructs: Construct design used either natural restriction sites or restriction sites created by the polymerase chain reaction (PCR) using Vent DNA polymerase (New England Biolabs) and custom oligonucleotides from Gibco BRL. In cases where a natural restriction site could not be found for use, complementary primers containing an appropriate restriction site or point mutation were used in conjunction with upstream and downstream primers containing restriction sites. Alternatively, mutagenic oligonucleotides were used as end primers to amplify the desired fragment. […]

FR-α promoter [1] = test: FR-α promoter-luciferase reporter in IGROV-1 cells co-transfected with ER; conditions: IGROV-1, ER co-transfected, 1 nM E2, pharmacologic concentrations of antiestrogen
Experimental: (§1) (FIG. 1A) HeLa and IGROV-1 cells (10^6) were co-transfected with the FR-α promoter-luciferase construct (400 ng) and either an ER expression plasmid (25 ng) or with the plasmid vector alone (25 ng) in the presence of 1 nM E2. Antiestrogens were introduced at the time of transfection. […] (FIG. 1B) The FR-α promoter-luciferase construct (400 ng) was transfected into BG-1 cells (10^6) in the absence or in the presence of E2 (1 nM) and antiestrogens were introduced at the time of transfection. (FIG. 1C) HeLa cells (10^6) were transfected with the thymidine kinase (TK)-promoter-luciferase (200 ng) or Rous Sarcoma Virus (RSV)-promoter-luciferase (200 ng) constructs and were co-transfected with either ER plasmid (25 ng) or with the plasmid vector (25 ng). Antiestrogens were introduced at the time of transfection.
(§2) Cell Culture and Transfection: HeLa I-1 cells were kindly provided by Dr. S. T. Rosen. BG-1 cells were provided by Dr. Randolf Ruch. […] Uniformity of transfection was routinely monitored through cotransfections with the β-galactosidase expression plasmid, pSV-β-gal (Promega). β-galactosidase activity was measured colorimetrically using the assay system available from Promega. […]

FR-α promoter [2] = test: FR-α promoter-luciferase in HeLa cells transfected with ERβ
Experimental: FIG. 8 is graph showing an effect of ERα vs. […] on FR-α promoter activity. HeLa cells (10^6) were transfected with the FR-α promoter-luciferase construct (200 ng) and co-transfected individually or in combination with expression plasmids (25 ng) for ERα, […] or with the plasmid vector. The cells were treated from the time of transfection with E2 (1 nm) and either without or with ICI 182, 780.
Effect of ERβ on FR-α Promoter activity: Since ER+ gynecological tumors are known to frequently co-express ERα and ERβ, the inventor herein tested whether ERβ may modulate FR-α similar to ERα or may otherwise counteract the effect of ERα.

FR-α promoter [3] = test: FR-α promoter-luciferase reporter in HeLa cells co-transfected with ER
Experimental: as §1
FIGS. 2A and 2B are graphs showing an estrogen and antiestrogen dose response of a control ERE-driven promoter and the FR-α promoter in HeLa cells. The Y-axis in FIG. 2A indicates promoter activation, whereas the Y-axis in FIG. 2B indicates promoter repression. The cells (10^6) were transfected with either ERE2E1b-luciferase (100 ng) (FIG. 2A) or FR-α promoter-luciferase (100 ng) (FIG. 2B) and co-transfected with the ER expression plasmid (50 ng) where indicated. Cells that were not co-transfected with the ER-plasmid were co-transfected instead with the plasmid vector alone (50 ng).
FIGS. 3A and 3B are graphs showing a time course of response of the control ERE2E1b-luciferase (FIG. 3A) and FR-α promoter luciferase (FIG. 3B) to antiestrogens in HeLa cells. The cells (10^6) were transfected with the indicated promoter-luciferase construct (100 ng) and co-transfected with ER expression plasmid (50 ng) in the presence of E2 (1 nM).
In one set of experiments, the antiestrogens were removed after a 6 h treatment.
Cell Culture and Transfection: HeLa I-1 cells were kindly provided by Dr. S. T. Rosen. BG-1 cells were provided by Dr. Randolf Ruch. HeLa (American Type Tissue Collection) and HeLa I-1 cells were routinely cultured in phenol red-free MEM supplemented with fetal bovine serum (FBS) (10%), penicillin (100 units/mL), streptomycin ([…]), and L-glutamine (2 mM). BG-1 and IGROV1 (American Type Tissue Collection) cells were routinely cultured in DMEM and supplemented as above. Treated or transfected cells were grown in phenol-red free media supplemented with charcoal-stripped FBS (5% v/v), penicillin (100 units/mL), streptomycin ([…]), L-glutamine (2 mM), insulin (2 μg/mL), and transferrin (40 μg/mL) unless otherwise noted. In addition, treated HeLa I-1 cells were grown in culture with 50 μg/mL G418. […] Uniformity of transfection was routinely monitored through cotransfections with the β-galactosidase expression plasmid, pSV-β-gal (Promega). β-galactosidase activity was measured colorimetrically using the assay system available from Promega.
Luciferase Assay: Forty-eight hours after transfection, the cells were washed once with PBS (10 mM sodium phosphate, pH 7.5, 150 mM NaCl) and harvested in 400 μL of reporter lysis buffer provided with the luciferase assay system (Promega). The samples were centrifuged at 12,000 g for 2 min at room temperature. The supernatant was assayed for luciferase activity in a luminometer (Lumat LB9501, Berthold) using the luciferase substrate from Promega.

FR-α promoter [4] = test: FR-α promoter-luciferase reporter in BG-1 cells (endogenous ER); conditions: BG-1, endogenous ER
Experimental: as §1, §2

Which results are given for `C[C@]12CC[C@@H]3c4ccc(O)cc4C[C@@H](CCCCCCCCC[S+]([O-])CCCC(F)(F)C(F)(F)F)[C@H]3[C@@H]1CC[C@@H]2O` (stereo partly drawn) [ICI 182,780]?
induction of endogenous FR-α expression (FR-α): In no case did the inventor observe induction; chimeric promoter activity (FR-α/SV40 (GC)6 promoter): this activation was counteracted; FR-α promoter activity after repression by ER (FR-α promoter [1]): either partially or completely restored to the uninhibited values; repression of the FR-α promoter by ERβ (FR-α promoter [2]): reversed; duration of derepression after withdrawing the compound (FR-α promoter [3]; 6 h treatment): at least 18 h; derepression of FR-α promoter after 6 h treatment and withdrawal (FR-α promoter [3]; 6 h treatment, then compound withdrawn): full derepression; effect on FR-α promoter (ligand dose response) (FR-α promoter [3]; HeLa, ER co-transfected): the repression was counteracted; FR-α promoter activity after repression by ER (FR-α promoter [3]; HeLa, ER co-transfected, 1 nM E2, pharmacologic concentrations of antiestrogen): either partially or completely restored to the uninhibited values; reporter activity at the end of 48 h post-transfection (FR-α promoter [3]; antiestrogen introduced 24 h after co-transfection): a doubling of the reporter activity; onset of activation of FR-α promoter (FR-α promoter [3]; antiestrogen introduced 24 h after transfection): began within hours and progressively increased; FR-α promoter activity in the absence of ER (FR-α promoter [3]; no ER co-transfected, HeLa and IGROV-1, results not shown): did not alter FR-α promoter activity; FR-α promoter activity (FR-α promoter [4]): increased the promoter activity
